In US20240316051A1, “A PHARMACEUTICAL COMBINATION AND USE THEREOF” (Ascentage Pharma (Suzhou) Co., Ltd., priority 2021, published 2024):

Test system: H226 (BAP1mut, UHRF1high, TP53WT, CDKN2Adel, FGFRhigh) subcutaneous mesothelioma xenograft
Experiment: H226 subcutaneous mesothelioma xenograft model (Example 22)
Type: in vivo, mice
Conditions: for RTV @ D 39: mean ± SEM
Experimental: A subcutaneous xenograft tumor model of human tumor immunodeficient mice was established by cell inoculation: tumor cells in logarithmic growth phase were collected, counted, resuspended in 1×PBS, and the cell suspension concentration was adjusted to 2.5-5×10^7/mL. The tumor cells were inoculated subcutaneously in the right side of immunodeficient mice with a 1 ml syringe ([…]), 5-10×10^6/0.2 mL/mouse. All animal experiments were strictly in accordance with the specifications for the use and management of experimental animals in GenePharma Co., Ltd. and Suzhou Ascentage Pharma Co., Ltd. The calculation of relevant parameters refers to the Chinese NMPA “Guidelines for Non-Clinical Research Techniques of Cytotoxic Anti-tumor Drugs”.
Animal body weight and tumor size were measured twice weekly during the experiment. The state of the animal and the presence or absence of death were observed every day. The growth of tumor and the effects of treatment on normal behavior of animals were monitored routinely, specifically involving experimental animal activity, feeding and drinking, weight gain or loss, eyes, clothing hair and other abnormalities. The deaths and clinical symptoms observed during the experiment were recorded in the raw data. All operations for administration and measurement of mouse body weight and tumor volume were performed in a clean bench. According to the requirements of the experimental protocol, after the end of the last administration, plasma and tumor tissues were collected, weighed and photographed. The plasma and tumor samples were frozen at −80° C. for ready-to-use.
Tumor volume (TV) is calculated as: TV=a×b^2/2, wherein a and b represent the length and width of the tumor to be measured, respectively.
The relative tumor volume (RTV) is calculated as: RTV=Vt/V1, wherein V1 is the tumor volume at the start of grouping and administration, and Vt is the tumor volume measured on the t day after administration.
The evaluation index of anti-tumor activity is the relative tumor proliferation rate T/C (%), and the calculation formula thereof is: relative tumor proliferation rate T/C (%)=(TRTV/CRTV)×100%, TRTV is the RTV of treatment group, CRTV is the RTV of solvent control group.
Change of body weight (%)=(measured body weight-body weight at the start of grouping)/body weight at the start of grouping×100%.
A dose of drug is considered to be severely toxic if the body weight of mouse is reduced by more than 20% or the number of drug-related deaths exceeds 20%.
In this experiment, H226 (BAP1mut, UHRF1high, TP53WT, CDKN2Adel, FGFRhigh) subcutaneous mesothelioma xenograft model was established to evaluate the anti-tumor effect of Compound 73 in combination with Compound C. The dosing regimen was as follows: • Compound C: 50 mg/kg, orally, every other day, for a total of 39 days; • Compound 73: 50 mg/kg, orally, once per day, for a total of 39 days; • Compound 73: 100 mg/kg, orally, once per day, for a total of 39 days.

[1] = Compound 73 100 mg/kg orally once per day, alone or combined with Compound C 50 mg/kg every other day
[2] = Compound C 50 mg/kg orally every other day, Compound 73 50 mg/kg orally once per day, alone or combined

`CC(C)N1Cc2cc(C(F)(F)F)ncc2-c2cnc(NCc3c(F)ccc4c3CCO4)n3cnc(c23)C1=O` [Compound 73, 12-(((5-fluoro-2,3-dihydrobenzofuran-4-yl)methyl)amino)-4-isopropyl-7-(trifluoromethyl)-4,5-dihydro-3H-2,4,8,11,12a-pentaazabenzo[4,5]cycloocta[1,2,3-cd]inden-3-one] was tested, and the “T/C (%) @ D 39” value [1] was 59.73%, the “RTV @ D 39” value [1] was 4.76 ± 0.61 and the “T/C (%) @ D 39” value [2] was 67.7%. For the same compound, the “RTV @ D 39” value [2] was 5.39 ± 0.56 and the “antitumor activity (in words)” value (single agents, 39 days (FIG. 10)) was “moderate antitumor activity”.
